Test results from patent US6894061B2, “Substituted dihydrophenanthridinesulfonamides” (Wyeth, priority 2002, dated 2005).
Like-named read-outs stand apart in the source and are kept apart here.

What was measured:
IL-6 = IL-6 test procedure (IL-6 ELISA of media) in Ad5-wt-ERα infected HAECT-1 cells; format: cell-based, human; conditions: for Emax: read-out: Interleukin-6 Efficacy (%); for IC50: read-out: Interleukin-6 IC50
Protocol: (§1) After four hours, cells were washed with EBM-BSA and incubated overnight in the same medium. Following overnight incubation, cells were washed with EBM-BSA and infected for 2 hours with 6 mL of a 1:10 dilution of Ad5-3x(NFκB).Luc virus (Adenovirus luciferase expression vector driven by 3 repeats of the MHC NFκb site 5′ to the thymidine kinase promoter) in EBM-BSA. After two hours, cells were washed and incubated at 34° C. for 1 hour. […] Control (no ER infection) cells were processed as above without Ad5-wt-hERα virus infection.
(§2) ERα infected HAECT-1 cells or control cells were thawed, diluted 42× in warm EBM-BSA, plated into 96-well plates at 0.1 mL/well and incubated for 4 hours at 34° C. Test compounds were added to the cells as 2× stocks in EBM-BSA containing 2 ng/mL IL-1β (R&D Systems) and the 96-well plates were returned to the incubator (34° C.). After 15-20 hours, 100 μL aliquots of media were removed from the cells and assayed for IL-6 content using a BioSource human IL-6 ELISA Kit. Cells were subsequently washed with 300 μL of Dulbecco's phosphate buffered saline and lysed in 50 μL of Cell Culture Lysis Reagent (Promega). Luciferase was determined on a Wallac Victor^2 Luminometer (Gaithersburg, Md.) using 10 μL of lysate and mixing with 100 μL of Promega Luciferase Assay reagent. Creatine kinase was determined from the rate of increase in A340 following addition of 100 μL of CK assay reagent (Sigma, cat. No 47-10) to the remainder of the cell lysate.
(§3) For IC50 and EC50 calculations, mean IL-6, luciferase or CK values versus log10 of the compound concentration were fitted to a four parameter logistic equation. The IC50/EC50 value, ‘Hill slope’, upper and lower limits of the curve were iteratively estimated.

creatine kinase = assay: Creatine kinase (CK) test procedure in Ad5-wt-ERα infected HAECT-1 cells; format: cell-based, human; conditions: Ad5-wt-ERα infected HAECT-1 cells; for EC50: read-out: Creatin Kinase EC50; for Emax / Emax at 10 µM: read-out: Creatin Kinase Efficacy (%)
Protocol: as §1, §2, §3

ER/NF-κB = ER/NF-κB luciferase reporter in Ad5-wt-ERα infected HAECT-1 cells; format: cell-based, human; conditions: Homo sapiens, HAECT1, IL-1β; for IC50: read-out: ER/NFκB IC50; for Emax: read-out: ER/NFκB Efficacy (%)*
Protocol: as §1, §2, §3

Compound | melting point [°C] | IC50 (ER/NF-κB) [nM] | Emax at 10 µM (creatine kinase; Homo sapiens, HAECT1) [%] | Emax (ER/NF-κB) [%] | also measured
C[C@@H]1c2cc(F)ccc2-c2ccc(F)cc2N1S(=O)(=O)c1ccc(O)cc1 (single isomer, unassigned) [Example 99] | – | – | – | – | Emax (IL-6; Homo sapiens, HAECT1, IL-1β): 139%; IC50 (IL-6; Homo sapiens, HAECT1, IL-1β): 341 nM
C[C@H]1c2cc(F)ccc2-c2ccc(F)cc2N1S(=O)(=O)c1ccc(O)cc1 (single isomer, unassigned) [Example 100] | – | – | – | – | Emax (IL-6; Homo sapiens, HAECT1, IL-1β): 196%; IC50 (IL-6; Homo sapiens, HAECT1, IL-1β): 6.9 nM
C[C@@H]1c2cc(F)ccc2-c2ccc(F)cc2N1S(=O)(=O)c1cccc(O)c1 (single isomer, unassigned) [Example 101] | – | – | – | – | Emax (IL-6; Homo sapiens, HAECT1, IL-1β): 74%; IC50 (IL-6; Homo sapiens, HAECT1, IL-1β): 1280 nM
C[C@H]1c2cc(F)ccc2-c2ccc(F)cc2N1S(=O)(=O)c1cccc(O)c1 (single isomer, unassigned) [Example 102] | – | – | – | – | Emax (IL-6; Homo sapiens, HAECT1, IL-1β): 156%; IC50 (IL-6; Homo sapiens, HAECT1, IL-1β): 5.4 nM
C[C@H]1c2cc(F)ccc2-c2ccc(F)cc2N1S(=O)(=O)c1ccc(O)cc1O (single isomer, unassigned) [Example 103] | – | – | – | – | Emax (IL-6; Homo sapiens, HAECT1, IL-1β): 141%; IC50 (IL-6; Homo sapiens, HAECT1, IL-1β): 47 nM; EC50 (creatine kinase; Homo sapiens, HAECT1): 85 nM; Emax (creatine kinase; Homo sapiens, HAECT1): 9%
C[C@@H]1c2cc(F)ccc2-c2ccc(F)cc2N1S(=O)(=O)c1ccc(O)cc1O (single isomer, unassigned) [Example 104] | – | – | – | – | Emax (IL-6; Homo sapiens, HAECT1, IL-1β): 43%; IC50 (IL-6; Homo sapiens, HAECT1, IL-1β): 171 nM; Emax (creatine kinase; Homo sapiens, HAECT1): 9%
CCC1c2ccc(C)cc2-c2ccccc2N1S(=O)(=O)c1ccc(O)cc1 (stereo not drawn) [Example 43, 4-[(6-Ethyl-9-methylphenanthridin-5(6H)-yl)sulfonyl]phenol] | 167 to 170 | > 10000 | < 35 | – | –
CCC1c2cc(F)ccc2-c2cc(Br)ccc2N1S(=O)(=O)c1ccc(O)cc1 (stereo not drawn) [Example 44, 4-[(2-Bromo-6-ethyl-8-fluorophenanthridin-5(6H)-yl)sulfonyl]phenol] | 220 to 221 | 85 | < 35 | 94 | –
CC1c2cc(F)ccc2-c2cc(Br)ccc2N1S(=O)(=O)c1ccc(O)cc1 (stereo not drawn) [Example 45, 4-[(2-Bromo-8-fluoro-6-methylphenanthridin-5(6H)-yl)sulfonyl]phenol] | 237 to 239 | 357 | < 35 | 92 | –
CCC1c2cc(F)ccc2-c2ccccc2N1S(=O)(=O)c1ccc(O)c(Cl)c1 (stereo not drawn) [Example 46, 2-Chloro-4-[(6-ethyl-8-fluorophenanthridin-5(6H)-yl)sulfonyl]phenol] | 174 to 177 | > 10000 | < 35 | – | –
CCC1c2cc(F)ccc2-c2cc(-c3ccccc3)ccc2N1S(=O)(=O)c1ccc(O)cc1 (stereo not drawn) [Example 47, 4-[(6-Ethyl-8-fluoro-2-phenylphenanthridin-5(6H)-yl)sulfonyl]phenol] | 207 | 60 | < 35 | 89 | –
CC1c2cc(F)ccc2-c2ccccc2N1S(=O)(=O)c1cccc(O)c1 (stereo not drawn) [Example 48, 3-[(8-fluoro-6-methylphenanthridin-5(6H)-yl)sulfonyl]phenol] | 161 | 525 | < 35 | 107 | –
CC1c2cc(F)ccc2-c2ccccc2N1S(=O)(=O)c1ccc(O)c(F)c1 (stereo not drawn) [Example 49, 2-Fluoro-4-[(8-fluoro-6-methylphenanthridin-5(6H)-yl)sulfonyl]phenol] | 191 | > 10000 | < 35 | – | –
CC1c2cc(F)ccc2-c2ccccc2N1S(=O)(=O)c1ccc(O)c(O)c1 (stereo not drawn) [Example 50, 4-[(8-Fluoro-6-methylphenanthridin-5(6H)-yl)sulfonyl]benzene-1,2-diol] | 165 to 170 | > 10000 | < 35 | – | –
CCC1c2cc(F)ccc2-c2cc(C)ccc2N1S(=O)(=O)c1ccc(O)cc1 (stereo not drawn) [Example 51, 4-[(6-Ethyl-8-fluoro-2-methylphenanthridin-5(6H)-yl)sulfonyl]phenol] | 197 to 200 | 56 | – | 106 | EC50 (creatine kinase; Homo sapiens, HAECT1): 77 nM; Emax (creatine kinase; Homo sapiens, HAECT1): 27%
CCC1c2cc(F)ccc2-c2ccccc2N1S(=O)(=O)c1ccc(OC(=O)CC(C)(C)C)cc1 (stereo not drawn) [Example 53, 4-[(6-Ethyl-8-fluorophenanthridin-5(6H)-yl)sulfonyl]phenyl 3,3-dimethylbutanoate] | 128 | 764 | < 35 | 76 | –
CCC(=O)Oc1ccc(S(=O)(=O)N2c3ccccc3-c3ccc(F)cc3C2CC)cc1 (stereo not drawn) [Example 54, 4-[(6-Ethyl-8-fluorophenanthridin-5(6H)-yl)sulfonyl]phenyl propionate] | 111 to 112 | 423 | – | 87 | EC50 (creatine kinase; Homo sapiens, HAECT1): 839 nM; Emax (creatine kinase; Homo sapiens, HAECT1): 24%
CC1c2ccccc2-c2ccccc2N1S(=O)(=O)c1ccc(O)c(F)c1 (stereo not drawn) [Example 56, 2-Fluoro-4-[(6-methylphenanthridin-5(6H)-yl)sulfonyl]phenol] | 172 to 174 | 1440 | – | 100 | EC50 (creatine kinase; Homo sapiens, HAECT1): 750 nM; Emax (creatine kinase; Homo sapiens, HAECT1): 34%
CC1c2ccccc2-c2cc(Br)ccc2N1S(=O)(=O)c1ccc(O)c(F)c1 (stereo not drawn) [Example 57, 4-[(2-Bromo-6-methylphenanthridin-5(6H)-yl)sulfonyl]-2-fluorophenol] | 203 to 206 | > 10000 | < 35 | – | –
CC1c2ccccc2-c2ccccc2N1S(=O)(=O)c1ccc(O)c(C(F)(F)F)c1 (stereo not drawn) [Example 58, 4-[(6-Methylphenanthridin-5(6H)-yl)sulfonyl]-2-(trifluoromethyl)phenol] | 213 to 215 | > 10000 | < 35 | – | –
Cc1cc(S(=O)(=O)N2c3ccccc3-c3ccccc3C2C)cc(C)c1O (stereo not drawn) [Example 59, 2,6-Dimethyl-4-[(6-methylphenanthridin-5(6H)-yl)sulfonyl]phenol] | 211 to 213 | 1720 | – | 102 | EC50 (creatine kinase; Homo sapiens, HAECT1): 2930 nM; Emax (creatine kinase; Homo sapiens, HAECT1): 22%
Cc1ccc2c(c1)C(C)N(S(=O)(=O)c1ccc(O)cc1)c1ccccc1-2 (stereo not drawn) [Example 60, 4-[(6,8-Dimethylphenanthridin-5(6H)-yl)sulfonyl]phenol] | 111 to 113 | 257 | < 35 | 95 | –
CC1c2cc(Cl)ccc2-c2cc(Br)ccc2N1S(=O)(=O)c1ccc(O)cc1 (stereo not drawn) [Example 62, 4-[(2-Bromo-8-chloro-6-methylphenanthridin-5(6H)-yl)sulfonyl]phenol] | 213 to 215 | 120 | < 35 | 90 | –
C[C@@H]1c2ccccc2-c2ccc(F)cc2N1S(=O)(=O)c1cccc(O)c1 [Example 107, 3-{[(6R)-3-Fluoro-6-methylphenanthridin-5(6H)-yl]sulfonyl}phenol] | – | – | – | – | Emax (IL-6; Homo sapiens, HAECT1, IL-1β): 79%; IC50 (IL-6; Homo sapiens, HAECT1, IL-1β): 1330 nM; EC50 (creatine kinase; Homo sapiens, HAECT1): 110 nM; Emax (creatine kinase; Homo sapiens, HAECT1): 20%
C[C@H]1c2ccccc2-c2ccc(F)cc2N1S(=O)(=O)c1cccc(O)c1 [Example 108, 3-{[(6S)-3-Fluoro-6-methylphenanthridin-5(6H)-yl]sulfonyl}phenol] | – | – | – | – | Emax (IL-6; Homo sapiens, HAECT1, IL-1β): 92%; IC50 (IL-6; Homo sapiens, HAECT1, IL-1β): 43 nM; EC50 (creatine kinase; Homo sapiens, HAECT1): 152 nM; Emax (creatine kinase; Homo sapiens, HAECT1): 11%
CC1c2ccc(F)cc2-c2ccc(F)cc2N1S(=O)(=O)c1ccc(O)cc1 (stereo not drawn) [Example 114, 4-[(3,9-Difluoro-6-mthylphenanthridin-5(6H)-yl)sulfonyl]ph nol] | – | – | – | – | Interleukin-6 Efficacy (%) (IL-6; IL-1β): 98%; IC50 (IL-6; IL-1β): 78 nM; Creatin Kinase Efficacy (%) (creatine kinase): 23%
C[C@H]1c2ccccc2-c2ccc(Cl)cc2N1S(=O)(=O)c1cccc(O)c1 [Example 120, 3-{[(6S)-3-Chloro-6-mthylphenanthridin-5(6H)-yl]sulfonyl}ph nol] | – | – | – | – | Interleukin-6 Efficacy (%) (IL-6; IL-1β): 153%; IC50 (IL-6; IL-1β): 6 nM; Creatin Kinase Efficacy (%) (creatine kinase): 10%
C[C@@H]1c2ccccc2-c2ccc(Cl)cc2N1S(=O)(=O)c1ccc(O)cc1 [Example 122, 4-{[(6R)-3-Chloro-6-methylphenanthridin-5(6)-yl]sulfonyl}phenol] | – | – | – | – | Interleukin-6 Efficacy (%) (IL-6; IL-1β): 37%; IC50 (IL-6; IL-1β): 464 nM; Creatin Kinase Efficacy (%) (creatine kinase): 14%; EC50 (creatine kinase): 805 nM
C[C@H]1c2ccccc2-c2ccc(Cl)cc2N1S(=O)(=O)c1ccc(O)cc1O [Example 125, 4-{[(6S)-3-Chlro-6-methylphenanthridin-5(6H)-yl]sulfonyl}b nzne-1,3-diol] | – | – | – | – | Interleukin-6 Efficacy (%) (IL-6; IL-1β): 94%; IC50 (IL-6; IL-1β): 54 nM; Creatin Kinase Efficacy (%) (creatine kinase): 22%
